From patent US11618743B2, “Herbicidal compounds” (SYNGENTA PARTICIPATIONS AG, priority 2017, dated 2023)
Where two headings read alike, the source gives them in different places.

Columns and labels:
Format in all cases: in vivo
[1] = tested on: Euphorbia heterophylla (EPHHL); assay: Post-emergence efficacy, Method B; settings: 360 h, Application Rate 1000 g/Ha, evaluated after 15 days, read-out: Control of weed species after post-emergence application, EPHHL (100=total damage to plant; 0=no damage to plant)
Method: (§1) An “instant formulation”, known as the IF50, containing 50 g/L of the “technical” (i.e. unformulated) active ingredient was prepared by dissolving the active ingredient in a mixture of organic solvents and emulsifier, details of which are provided in the table. This IF50 was then mixed with a small, variable amount of acetone to aid dissolution, before addition of an aqueous solution of 1% v/v ammonium sulphate+1% v/v Empicol ESC70 (Sodium lauryl ether sulphate) adjuvant, as the aqueous diluent, to form an aqueous spray solution which contains a predetermined concentration of the active ingredient (which varies depending on the application rate of the active ingredient to the plants).
(§2) Composition of the mixture of organic solvents and emulsifier used as a base for the instant formulation.
(§3) This aqueous spray solution was then sprayed onto the plants, after about 12 days' cultivation. The plants were grown from seeds sown in standard soil, placed in a glasshouse under controlled conditions (at 24/18° C. or 20/16° C., day/night; 16 hours light; 65% humidity). After spray application the plants were then grown on in a glasshouse under the same conditions and watered twice daily. After 15 days the test was evaluated (100=total damage to plant; 0=no damage to plant).
(§4) Ipomoea hederacea (IPOHE), Euphorbia heterophylla (EPHHL), Chenopodium album (CHEAL), 20 Amaranthus retroflexus (AMARE), Lolium perenne (LOLPE), Digitaria sanguinalis (DIGSA), Eleusine indica (ELEIN), Echinochloa crus-galli (ECHCG), Setaria faberi (SETFA)

[2] = tested on: Ipomoea hederacea (IPOHE); assay: Post-emergence efficacy, Method B; settings: 360 h, read-out: Control of weed species after post-emergence application, IPOHE (100=total damage to plant; 0=no damage to plant)
Method: as §1, §2, §3, §4

[3] = tested on: Chenopodium album (CHEAL); assay: Post-emergence efficacy, Method B; settings: 360 h, read-out: Control of weed species after post-emergence application, CHEAL (100=total damage to plant; 0=no damage to plant)
Method: as §1, §2, §3, §4

[4] = tested on: Echinochloa crus-galli (ECHCG); assay: Post-emergence efficacy, Method B; settings: 360 h, read-out: Control of weed species after post-emergence application, ECHCG (100=total damage to plant; 0=no damage to plant)
Method: as §1, §2, §3, §4

[5] = tested on: Eleusine indica (ELEIN); assay: Post-emergence efficacy, Method B; settings: 360 h, read-out: Control of weed species after post-emergence application, ELEIN (100=total damage to plant; 0=no damage to plant)
Method: as §1, §2, §3, §4

[6] = tested on: Setaria faberi (SETFA); assay: Post-emergence efficacy, Method B; settings: 360 h, Application Rate 1000 g/Ha, evaluated after 15 days, read-out: Control of weed species after post-emergence application, SETFA (100=total damage to plant; 0=no damage to plant)
Method: as §1, §2, §3, §4

[7] = tested on: Digitaria sanguinalis (DIGSA); assay: Post-emergence efficacy, Method B; settings: 360 h, Application Rate 1000 g/Ha, evaluated after 15 days, read-out: Control of weed species after post-emergence application, DIGSA (100=total damage to plant; 0=no damage to plant)
Method: as §1, §2, §3, §4

[8] = tested on: Lolium perenne (LOLPE); assay: Post-emergence efficacy, Method B; settings: 360 h, read-out: Control of weed species after post-emergence application, LOLPE (100=total damage to plant; 0=no damage to plant)
Method: as §1, §2, §3, §4

[9] = tested on: Amaranthus retroflexus (AMARE); assay: Post-emergence efficacy, Method B; settings: 360 h, Application Rate 1000 g/Ha, evaluated after 15 days, read-out: Control of weed species after post-emergence application, AMARE (100=total damage to plant; 0=no damage to plant)
Method: as §1, §2, §3, §4

[10] = tested on: Euphorbia heterophylla (EPHHL); assay: Post-emergence efficacy, Method A; settings: Application rate 500 g/Ha, evaluated after 13 days; for Control of weed species EPHHL after post-emergence application (100=total damage to plant; 0=no damage to plant): Method A; for Control of weed species after post-emergence application, EPHHL: 100=total damage to plant, 0=no damage
Summary of the method: (§5)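 Potted plants in standard soil grown 14 d at 24/16 °C, 65% RH, then sprayed; twice-daily watering afterwards. Rated day 13, 0–100 damage.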

[11] = tested on: Ipomoea hederacea (IPOHE); assay: Post-emergence efficacy, Method A; settings: Application rate 500 g/Ha, evaluated after 13 days; for Control of weed species IPOHE after post-emergence application (100=total damage to plant; 0=no damage to plant): Method A; for Control of weed species after post-emergence application, IPOHE: 100=total damage to plant, 0=no damage
Summary of the method: as §5

[12] = tested on: Chenopodium album (CHEAL); assay: Post-emergence efficacy, Method A; settings: Application rate 500 g/Ha, evaluated after 13 days; for Control of weed species CHEAL after post-emergence application (100=total damage to plant; 0=no damage to plant): Method A; for Control of weed species after post-emergence application, CHEAL: 100=total damage to plant, 0=no damage
Summary of the method: as §5

[13] = tested on: Echinochloa crus-galli (ECHCG); assay: Post-emergence efficacy, Method A; settings: Application rate 500 g/Ha, evaluated after 13 days; for Control of weed species ECHCG after post-emergence application (100=total damage to plant; 0=no damage to plant): Method A; for Control of weed species after post-emergence application, ECHCG: 100=total damage to plant, 0=no damage
Summary of the method: as §5

[14] = tested on: Eleusine indica (ELEIN); assay: Post-emergence efficacy, Method A; settings: Application rate 500 g/Ha, evaluated after 13 days; for Control of weed species ELEIN after post-emergence application (100=total damage to plant; 0=no damage to plant): Method A; for Control of weed species after post-emergence application, ELEIN: 100=total damage to plant, 0=no damage
Summary of the method: as §5

[15] = tested on: Setaria faberi (SETFA); assay: Post-emergence efficacy, Method A; settings: Application rate 500 g/Ha, evaluated after 13 days; for Control of weed species SETFA after post-emergence application (100=total damage to plant; 0=no damage to plant): Method A; for Control of weed species after post-emergence application, SETFA: 100=total damage to plant, 0=no damage
Summary of the method: as §5

[16] = tested on: Digitaria sanguinalis (DIGSA); assay: Post-emergence efficacy, Method A; settings: Application rate 500 g/Ha, evaluated after 13 days; for Control of weed species DIGSA after post-emergence application (100=total damage to plant; 0=no damage to plant): Method A; for Control of weed species after post-emergence application, DIGSA: 100=total damage to plant, 0=no damage
Summary of the method: as §5

[17] = tested on: Amaranthus palmeri (AMAPA); assay: Post-emergence efficacy, Method A; settings: Application rate 500 g/Ha, evaluated after 13 days; for Control of weed species AMAPA after post-emergence application (100=total damage to plant; 0=no damage to plant): Method A; for Control of weed species after post-emergence application, AMAPA: 100=total damage to plant, 0=no damage
Summary of the method: as §5

[18] = tested on: Lolium perenne (LOLPE); assay: Post-emergence efficacy, Method A; settings: Application rate 500 g/Ha, evaluated after 13 days; for Control of weed species LOLPE after post-emergence application (100=total damage to plant; 0=no damage to plant): Method A; for Control of weed species after post-emergence application, LOLPE: 100=total damage to plant, 0=no damage
Summary of the method: as §5

[19] = Method B, Application Rate 1000 g/Ha, evaluated after 15 days

SMILES	Control of weed species EPHHL after post-emergence application (100=total damage to plant; 0=no damage to plant) [10]	Control of weed species IPOHE after post-emergence application (100=total damage to plant; 0=no damage to plant) [11]	Control of weed species CHEAL after post-emergence application (100=total damage to plant; 0=no damage to plant) [12]	Control of weed species ECHCG after post-emergence application (100=total damage to plant; 0=no damage to plant) [13]	Control of weed species ELEIN after post-emergence application (100=total damage to plant; 0=no damage to plant) [14]	Control of weed species SETFA after post-emergence application (100=total damage to plant; 0=no damage to plant) [15]	Control of weed species DIGSA after post-emergence application (100=total damage to plant; 0=no damage to plant) [16]	Control of weed species AMAPA after post-emergence application (100=total damage to plant; 0=no damage to plant) [17]	Control of weed species LOLPE after post-emergence application (100=total damage to plant; 0=no damage to plant) [18]	further results
Nc1ccnc(-c2cc[n+](CCC(=O)O)nc2)n1 [Compound A41]										pest or weed control at 1000 g/ha [1]: 100%; pest or weed control at 1000 g/ha [2]: 20%; pest or weed control at 1000 g/ha [3]: 90%; pest or weed control at 1000 g/ha [4]: 100%; pest or weed control at 1000 g/ha [5]: 50%; pest or weed control at 1000 g/ha [6]: 100%; pest or weed control at 1000 g/ha [7]: 100%; pest or weed control at 1000 g/ha [8]: 60%; pest or weed control at 1000 g/ha [9]: 100%
N#C[N-]C(=O)CC[n+]1ccc(-c2ncccn2)cn1 [Compound A226]										pest or weed control at 1000 g/ha [2, 19]: 100%; pest or weed control at 1000 g/ha [3, 19]: 100%; pest or weed control at 1000 g/ha [4, 19]: 100%; pest or weed control at 1000 g/ha [6]: 70%; pest or weed control at 1000 g/ha [7]: 100%; pest or weed control at 1000 g/ha [8, 19]: 70%; pest or weed control at 1000 g/ha [9]: 100%
CCOP(=O)(CC[n+]1ccc(-c2cnccn2)cn1)OCC.O=C([O-])C(F)(F)F [Compound A8]	10	10	10	10	20	20	20	10	0	
COC(=O)C[n+]1ccc(-c2ncccn2)cn1.[Br-] [Compound A2, methyl 2-(4-pyrimidin-2-ylpyridazin-1-ium-1-yl)acetate bromide]	90	10	20	50	30	80	40	60	0	
N[C@@H](C[n+]1ccc(-c2ncccn2)cn1)C(=O)O [Compound A208, [(1S)-1-carboxy-2-(4-pyrimidin-2-ylpyridazin-1-ium-1-yl)ethyl]ammonium 2,2,2-trifluoroacetate]										Control of weed species after post-emergence application, EPHHL [10]: 50; Control of weed species after post-emergence application, IPOHE [11]: 20; Control of weed species after post-emergence application, CHEAL [12]: 80; Control of weed species after post-emergence application, ECHCG [13]: 30; Control of weed species after post-emergence application, ELEIN [14]: 60; Control of weed species after post-emergence application, SETFA [15]: 60; Control of weed species after post-emergence application, DIGSA [16]: 40; Control of weed species after post-emergence application, AMAPA [17]: 100; Control of weed species after post-emergence application, LOLPE [18]: 10
N#Cc1cnc(-c2cc[n+](CCS(=O)(=O)[O-])nc2)nc1 [Compound A25]	40	50	60	70	50	60	50	100	40	
COc1cc(C)nc(-c2cc[n+](CCS(=O)(=O)[O-])nc2)n1 [Compound A94]	40	30	90	30	20	40	30	70	20	
O=S(=O)([O-])CC[n+]1ccc(-c2cccnc2)cn1 [Compound A179]										Control of weed species after post-emergence application, EPHHL [10]: 60; Control of weed species after post-emergence application, IPOHE [11]: 20; Control of weed species after post-emergence application, CHEAL [12]: 30; Control of weed species after post-emergence application, ECHCG [13]: 40; Control of weed species after post-emergence application, ELEIN [14]: 50; Control of weed species after post-emergence application, SETFA [15]: 60; Control of weed species after post-emergence application, DIGSA [16]: 50; Control of weed species after post-emergence application, AMAPA [17]: 30; Control of weed species after post-emergence application, LOLPE [18]: 10
